# From article PMC3729231 (Bioorganic & medicinal chemistry letters, 2012)
# Assays:
# [1] = system: 29 other GPCRs; experiment: PDSP GPCR binding assay panel: other GPCRs; details: listed as ML221
# [2] = aqueous acetonitrile; data not shown
# [3] = target: T1, APJ (Homo sapiens, UniProt P35414); experiment: cell-based
# T1 sequence (P35414 1-380): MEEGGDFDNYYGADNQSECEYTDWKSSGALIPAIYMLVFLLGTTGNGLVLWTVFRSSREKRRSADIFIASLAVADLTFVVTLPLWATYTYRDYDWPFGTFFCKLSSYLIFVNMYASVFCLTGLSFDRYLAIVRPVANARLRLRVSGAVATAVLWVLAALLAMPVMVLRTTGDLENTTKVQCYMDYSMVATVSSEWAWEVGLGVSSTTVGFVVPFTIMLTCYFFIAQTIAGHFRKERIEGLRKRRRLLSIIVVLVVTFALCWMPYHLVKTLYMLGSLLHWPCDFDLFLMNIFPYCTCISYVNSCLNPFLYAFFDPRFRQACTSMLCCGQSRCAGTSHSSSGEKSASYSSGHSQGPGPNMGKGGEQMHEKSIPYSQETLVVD
smiles,measurement,setting,value
"O=C(Oc1coc(CSc2ncccn2)cc1=O)c1ccc([N+](=O)[O-])cc1 [Entry 6, 4-oxo-6-((pyrimidin-2-ylthio)methyl)-4H-pyran-3-yl 4-nitrobenzoate]",binding activity against other GPCRs (in words),[1],no significant binding activity
Cc1ccnc(SCc2cc(=O)c(OC(=O)c3ccc(Cl)c([N+](=O)[O-])c3)co2)n1 [Entry 29],hydrolytic stability of the ester bond (in words),[2],readily hydrolyzed
Cc1ccnc(SCc2cc(=O)c(NC(=O)c3ccc([N+](=O)[O-])cc3)co2)n1 [Entry 67],IC50,[3],12.8 ± 0.35 µM
